Reference: ChEMBL document CHEMBL3272151, “Quantitative structure-activity relationship of chymotrypsin-ligand interactions” (J Med Chem, 1977)

Tests used:
[1] = Binding affinity to chymotrypsin (unknown origin) assessed as acetylation at pH 7; conditions: Homo sapiens
[2] = Binding affinity to chymotrypsin (unknown origin) assessed as acetylation at pH 6; conditions: Homo sapiens
[3] = Inhibition of chymotrypsin (unknown origin); conditions: Homo sapiens
[4] = Binding affinity to chymotrypsin (unknown origin) assessed as deacetylation; conditions: Homo sapiens

Description for Homo sapiens: Inhibition of alpha-chymotrypsin (unknown origin)

SMILES	log K [1]	log K [2]	log1/Ki [3]	other results
Cc1ccc(C(=O)Oc2ccc([N+](=O)[O-])cc2)cc1	3.31	2.85	–	–
N#Cc1ccc(C(=O)Oc2ccc([N+](=O)[O-])cc2)cc1	3.94	3.35	–	–
CC(C)(C)c1ccc(C(=O)O)cc1	–	–	3.89	–
O=C(Oc1ccc([N+](=O)[O-])cc1)c1cccc(C(F)(F)F)c1	3.59	3.22	–	–
C1=CCCCC1	–	–	2.07	–
O=C(Oc1ccc([N+](=O)[O-])cc1)c1cccc(Cl)c1	3.77	3.43	–	–
O=C(Oc1ccc([N+](=O)[O-])cc1)c1ccc(C(F)(F)F)cc1	3.95	3.41	–	log K [4]: -2.69
O=C(Oc1ccc([N+](=O)[O-])cc1)c1ccc([N+](=O)[O-])cc1	3.96	3.55	–	log K [4]: -3.44
Cc1ccccc1	–	–	–	log1/Ki (Homo sapiens): 2.55
O=C(Oc1ccc([N+](=O)[O-])cc1)c1cccc(F)c1	3.6	3.17	–	log K [4]: -0.35
O=C(Oc1ccc([N+](=O)[O-])cc1)c1ccc(Cl)cc1	3.56	3.27	–	log K [4]: -3.48
O=C(Oc1ccc([N+](=O)[O-])cc1)c1ccccc1	3.16	2.64	–	log K [4]: -3.69
c1ccc2cc3ccccc3cc2c1	–	–	–	log1/Ki (Homo sapiens): 5.26
O=C(O)c1ccc2ccccc2c1	–	–	3.86	–
CCc1ccc(C(=O)Oc2ccc([N+](=O)[O-])cc2)cc1	3.97	3.87	–	–
Clc1ccccc1	–	–	–	log1/Ki (Homo sapiens): 3.09
C1=Cc2ccccc2C1	–	–	3.67	–
O=C(O)c1ccccc1	–	–	1.99	–
Cc1ccc(C(=O)O)cc1	–	–	2.43	–
O=C(O)CCc1ccccc1	–	–	2.79	–
CCCCC	–	–	2.25	–
CCc1ccccc1	–	–	–	log1/Ki (Homo sapiens): 2.74
c1ccc2ccccc2c1	–	–	–	log1/Ki (Homo sapiens): 3.93
Cc1cccc(C(=O)O)c1	–	–	2.42	–
O=[N+]([O-])c1ccccc1	–	–	–	log1/Ki (Homo sapiens): 3.02
COc1ccc(C(=O)Oc2ccc([N+](=O)[O-])cc2)cc1	2.97	2.78	–	log K [4]: -4.39
O=C(Oc1ccc([N+](=O)[O-])cc1)c1ccc(F)cc1	3.11	2.74	–	–
O=C(O)CCCc1ccccc1	–	–	3.22	–
